Test results from patent publication US20030031723A1, “Formulation and method for preparation of rapid dispersion spheroids which can be heavily titrated” (priority 2001, published 2003).

Experiment: quantity of water absorbed by the same mass (100 g) of excipients
Type: physicochemical
Excerpt: Below are some examples supporting this statement, which test the quantity of water absorbed by the same mass (100 g) of excipients of different types: […]

OC[C@H]1O[C@@H](O[C@H]2[C@H](O)[C@@H](O)C(O)O[C@@H]2CO)[C@H](O)[C@@H](O)[C@H]1O (stereo partly shown) [Lactose]
AMOUNT OF WATER ABSORBED PER 100 g OF EXCIPIENT: 15 g
